In BindingDB's records for patent US20240226096 (Poseidon Innovation 1, 2024):
pIC50: −log10 of the molar value.

Target: T1, Bromodomain-containing protein 4 [368-440] (Homo sapiens, UniProt O60885)
T1 construct: 368-440
Assay: BET BRD Assay
Method: 3x Complete Substrate plus Inhibitor Solution in Assay Medium (Opti-MEM I Reduced Serum Medium, no phenol red, and no serum) was prepared just before measuring BRET. This solution consisted of a 1:166 dilution of NanoBRET Nano-Glo Substrate plus a 1:500 dilution of Extracellular NanoLuc Inhibitor in Assay Medium. For a 96-well plate, 30 ul of NanoBRET Nano-Glo Substrate, 10 ul of Extracellular NanoLuc Inhibitor and 4,960 ul of Assay Medium were mixed to produce 5 ml of 3x Complete Substrate plus Inhibitor Solution, followed with gently mixing by inversion 5-10 times in a conical tube. (The final concentration of Extracellular NanoLuc Inhibitor in the 3x solution was 60 uM, for a working concentration of 20 uM. Use 3x Complete Substrate plus Inhibitor Solution within 2 hours. Discard any remaining solution). […] Donor emission wavelength (e.g., 450 nm) and acceptor emission wavelength (e.g., 610 nm) were measured by using the GloMax Discover System or other NanoBRET Assay-compatible luminometer (it is recommended measuring BRET within 10 minutes after adding NanoBRET Nano-Glo Substrate plus Extracellular NanoLuc Inhibitor Solution. However, BRET can be measured for up to 2 hours, but there will be some loss of luminescence signal). […]

pIC50: 7.99
Structure (SMILES): Cc1cc(-c2ccc(-n3ccn(C)c3=O)c(Cl)c2)c(O)c(-c2cccc(N3CCN(C(C)(C)C)CC3)c2)n1 [US20240226096, Example I-2]
